Where two headings read alike, the source gives them in different places.
Tests used:
[1] = PK profile in monkeys; type: in vivo, monkey; settings: for bioavailability: po
[2] = system: congestive heart failure following myocardial ischemia; test: Acute myocardial ischemia induced HF, dose response / MED; type: in vivo, rat
Method: • Male Sprague Dawley rats • Ligation of left coronary artery for 30 minutes followed by reperfusion • Post-ligation recovery for 28 days • Cardiac function 28 days after ischemia-reperfusion using a Millar pressure-volume catheter inserted in the left ventricle via the carotid artery • Record pressure-volume loops over several cardiac cycles and derived cardiac function parameters Dose response with the compound of Formula I on cardiac function in congestive heart failure (CHF) was studied by inducing CHF following myocardial ischemia for the determination of Minimum Effective Dose (MED) 2 mg/kg, as shown in FIGS. 10A and 10B.

[3] = Tissue distribution in mice; type: in vivo, mouse; settings: for Compound of Formula 1 (μg/mL or μg/g): male Swiss Webster mice, single iv dose 60 mg/kg; for Kp at 4 h / Kp at 8 h: male, Swiss Webster, mouse, mice, single iv 60 mg/kg, read-out: Tissue/plasma ratio
Method: • N=3/time point, male Swiss Webster mice, single iv dose, 60 mg/kg Compound of Formula I

[4] = target: PHD2 (Homo sapiens (Human), UniProt Q9GZT9); test: HIF-PH assay (14CO2 capture), PHD2; type: biochemical
Source text: The selectivity profile for the compound of Formula I can be determined using, for example, any assay familiar and commonly accessible to those skilled in the art, e.g., the following HIF-PH assay. Ketoglutaric acid α-[1-^14C]-sodium salt, alpha-ketoglutaric acid sodium salt, and HPLC purified peptide may be obtained from commercial sources, e.g., Perkin-Elmer (Wellesley MA), Sigma-Aldrich, and SynPep Corp. (Dublin CA), respectively. Peptides for use in the assay may be fragments of HIFα as described above or as disclosed in International Publication WO 2005/118836, incorporated by reference herein. HIF-PH, e.g., PHD1 (EGLN2) or PHD2 (EGLN1), can be expressed in, e.g., insect Hi5 cells, and partially purified, e.g., through a SP ion exchange chromatography column. Enzyme activity is determined by capturing ^14CO2 using an assay described by Kivirikko and Myllyla (1982, Methods Enzymol. 82:245-304). […] The peptide-dependent percent turnover is calculated by subtracting percent turnover in the absence of peptide from percent turnover in the presence of substrate peptide. Percent inhibition and IC50 are calculated using peptide-dependent percent turnover at given inhibitor concentrations. […] IC50 of test compound for PHD1 and for PHD2 and/or PHD3 can be readily determined using the above method, and used to assess the selectivity of the compound for inhibition of PHD1.

[5] = system: coronary artery (isolated heart preparation); test: Coronary artery vasodilation in an isolated heart preparation
[6] = system: global ischemia; test: Acute cardioprotection: left ventricular function and coronary flow after global ischemia
[7] = Preliminary PK profile in dogs; type: in vivo, dog
Source text: The preliminary PK profile of the compound of Formula I in dogs was studied and the results are shown in FIG. 19 and summarized in the following Table.

[8] = both sexes, monkey, in vivo, oral, monkeys, males and females
[9] = both sexes, monkey, in vivo, monkeys, males and females
[10] = in vivo, monkey, PK summary table
[11] = 0.2, 0.6, 2 mg/kg daily, 4 weeks, effect at 2 mg/kg
[12] = dog, in vivo, dogs, preliminary

Sequence of PHD2 (Q9GZT9 whole entry, species assumed, the tested form may be a part): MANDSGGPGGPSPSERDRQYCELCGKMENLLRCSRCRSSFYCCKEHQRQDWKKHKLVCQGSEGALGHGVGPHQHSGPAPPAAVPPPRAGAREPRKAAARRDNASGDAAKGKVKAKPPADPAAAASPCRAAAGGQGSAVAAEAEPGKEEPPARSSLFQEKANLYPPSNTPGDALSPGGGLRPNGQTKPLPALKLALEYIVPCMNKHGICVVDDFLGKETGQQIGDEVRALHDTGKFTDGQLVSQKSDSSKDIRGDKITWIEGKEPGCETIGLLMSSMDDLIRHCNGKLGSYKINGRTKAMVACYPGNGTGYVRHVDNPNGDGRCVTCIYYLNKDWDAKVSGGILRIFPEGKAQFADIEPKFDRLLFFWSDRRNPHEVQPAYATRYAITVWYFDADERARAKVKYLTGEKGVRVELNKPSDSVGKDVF

## CC(C)(CC(=O)O)NC(=O)c1nc(C#N)c2cc(Oc3ccccc3)ccc2c1O [Formula I, 3-[(1-cyano-4-hydroxy-7-phenoxy-isoquinoline-3-carbonyl)-amino]-3-methyl-butyric acid]
[1]; [8]
  Cmax: 10900 ± 3700 ng/mL
  Tmax: 2.6 ± 1.6 h
[1]; [9]
  AUC(0-inf): 180000 ± 68000 ng·h/mL
  AUC(0-t): 176000 ± 67000 ng·h/mL
  clearance: 0.433 mL/min/kg
  half-life: 34.6 ± 9.5 h
[1]; both sexes, monkey, in vivo, monkeys, males and females, read-out: Vss
  Vd: 0.184 ± 0.028 L/kg
[1]; in vivo, oral, monkey, PK summary table
  Tmax: ~1 h
[1]; [10]
  clearance: 0.517 to 0.667 mL/min/kg
  half-life: 22 to 36 h
[1]; monkey vs rats (slower than CL in dogs)
  Systemic clearance compared with other species: comparable to those in rats
[1]; monkey, 10-60 mg/kg
  Dose proportional: Yes
[1]; monkey, daily dosing, compared to Day 1 exposure
  Accumulation (after multiple dosing): 2-3 fold higher
[1]; monkey, in vivo, monkeys, read-out: Oral bioavailability (Oral % F)
  bioavailability: 36 to 48%
[1]; monkey, in vivo, monkeys, read-out: Oral bioavailability, group mean
  bioavailability: 42 to 47%
[1]; monkey, up to 150 mg/kg
  Dose proportional: less than dose
[1]; monkeys
  Dose proportionality of compound exposure: increased dose proportionally
  Vss relative to plasma volume: higher than plasma volume
[1]; monkeys, compound exposure or key PK parameters
  Sex difference in PK: no marked sex difference and No
[2]; [11]
  cardiac hypertrophy: Significant reduction in cardiac
  diastolic function: hypertrophy and improved systolic
  systolic function: hypertrophy and improved systolic
[2]; cardiac function in CHF following myocardial ischemia
  Minimum Effective Dose (MED): 2 mg/kg
[3]; Colon, 4 h post dose
  Compound of Formula 1 (μg/mL or μg/g): 12.9 ± 2.7 μg/mL or μg/g
  Kp at 4 h: 0.23
[3]; Colon, 8 h post dose
  Compound of Formula 1 (μg/mL or μg/g): 16.1 ± 6.3 μg/mL or μg/g
  Kp at 8 h: 0.37
[3]; Duodenum, 4 h post dose
  Compound of Formula 1 (μg/mL or μg/g): 19.1 ± 5.6 μg/mL or μg/g
  Kp at 4 h: 0.34
[3]; Duodenum, 8 h post dose
  Compound of Formula 1 (μg/mL or μg/g): 21.8 ± 4.1 μg/mL or μg/g
  Kp at 8 h: 0.5
[3]; Heart, 4 h post dose
  Compound of Formula 1 (μg/mL or μg/g): 10.4 ± 4.6 μg/mL or μg/g
  Kp at 4 h: 0.18
[3]; Heart, 8 h post dose
  Compound of Formula 1 (μg/mL or μg/g): 7.4 ± 2.1 μg/mL or μg/g
  Kp at 8 h: 0.17
[3]; Kidney, 4 h post dose
  Compound of Formula 1 (μg/mL or μg/g): 9.2 ± 3.4 μg/mL or μg/g
  Kp at 4 h: 0.16
[3]; Kidney, 8 h post dose
  Compound of Formula 1 (μg/mL or μg/g): 7.2 ± 1.9 μg/mL or μg/g
  Kp at 8 h: 0.17
[3]; Liver, 4 h post dose
  Compound of Formula 1 (μg/mL or μg/g): 40.2 ± 7.2 μg/mL or μg/g
  Kp at 4 h: 0.71
[3]; Liver, 8 h post dose
  Compound of Formula 1 (μg/mL or μg/g): 38.4 ± 4.6 μg/mL or μg/g
  Kp at 8 h: 0.89
[3]; Plasma, 4 h post dose
  Compound of Formula 1 (μg/mL or μg/g): 56.6 ± 10.6 μg/mL or μg/g
  Kp at 4 h: 1
[3]; Plasma, 8 h post dose
  Compound of Formula 1 (μg/mL or μg/g): 43.3 ± 11.0 μg/mL or μg/g
  Kp at 8 h: 1
[4]; Table 1
  IC50: 20.4 µM
[4]; additional experiment, Table 1A
  IC50: 16.9 µM
[5]
  coronary artery vasodilation (coronary perfusion pressure, coronary resistance): induced
[6]
  coronary flow: improved
  left ventricular function: improved
  left ventricular function (LVDP): improved
  left ventricular function (LVEP): improved
[7]; dog
  Sex difference in PK: No
[7]; dog, 10-60 mg/kg
  Dose proportional: Yes
[7]; dog, PK summary table
  CL: 4.2 ± 0.683 mL/min/kg
[7]; dog, in vivo, PK summary table
  half-life: 11 ± 2 h
[7]; dog, in vivo, po, dogs, read-out: Oral bioavailability (Oral % F)
  bioavailability: ~25%
[7]; [12]
  AUC(0-inf): 10200 ± 3300 ng·h/mL
  AUC(0-t): 10200 ± 3300 ng·h/mL
  Cmax: 2600 ± 1900 ng/mL
  Tmax: 0.8 ± 0.4 h
  clearance: 4.2 mL/min/kg
  half-life: 11.3 ± 1.8 h
[7]; dog, in vivo, dogs, preliminary, read-out: Vss
  Vd: 0.249 ± 0.073 L/kg
[7]; dog, up to 150 mg/kg
  Dose proportional: less than dose
[7]; dog, no data, expected based on T1/2
  Accumulation (after multiple dosing): some acc based
[7]; dogs
  Vss relative to plasma volume: higher than plasma volume
[7]; dogs vs rats
  Clearance in dogs relative to CL in rats: 5-10 ×
[7]; in vivo, oral, dog, PK summary table
  Tmax: ~1 h

From patent US20250099455A1, “TREATMENT FOR CONGESTIVE HEART FAILURE” (FibroGen, Inc., priority 2022, published 2025)
